± gives the expanded uncertainty stated by the source.
Details: 298.15 K; 101.33 kPa; Crystal

mass density [kg/m3] | Compound
1200 ± 200 | O=C(O)c1cnccn1 [2-pyrazinecarboxylic acid]
1100 ± 200 | NC(=O)c1cnccn1 [pyrazinecarboxamide]
